Laboratory results: patent publication US9345691B2, “Beta-lactam compounds for enhancing T cell-mediated immune responses” (STEM CELL MEDICINE LTD., priority 2011, dated 2016)

Legend:
[1] = system: encephalitogenic BP10 T-cell line; assay: Adoptive EAE by BP10 line stimulated in vitro with test substance; type: in vivo, rat
Excerpt: The ability of a compound to enhance T cell activity may be determined, for example, using an in vivo assay testing the effect of a given compound on the severity of adoptive (passive) EAE, namely, EAE which is induced by the injection of activated encephalitogenic T cell line to the model animal. In order to test a compound, the encephalitogenic T cells are activated in the presence of the compound prior to injection. An exemplary procedure is described in the Examples section hereinbelow.
Antigen-specific T-cell lines were established from lymph node cells that had been stimulated with myelin basic protein (MBP; 10 μg/ml) for 3 days in stimulation medium as described below. Following stimulation, the T-cell blasts were isolated on Lympho-prep (Nycomed Pharma, Oslo, Norway) and seeded in propagation medium. Propagation medium was identical to stimulation medium without autologous serum, but supplemented with fetal calf serum 10% and T-cell growth factors from the supernatant of Con A stimulated spleen cells 10% (Mor et al. (1990) J Clin Invest, 85, 1594-1598). Animals were injected intra-peritoneally with 10^7 MBP-stimulated T cells, following 6-8 cycles of in vitro stimulations. It is known that MBP-reactive lines undergo a reduction in pathogenicity after 6 or more in vitro stimulations. In some experiments the BP10 line was stimulated with phorbol myristate acetate (PMA; 50 ng/ml) and ionomycin (500 ng/ml) for 3 days in stimulation medium, without antigen-presenting cells.
Active EAE was induced by subcutaneous injection of 25 μg guinea-pig MBP (GpMBP) in complete Freund's adjuvant (CFA). CFA was prepared by adding 4 mg/ml Mycobacterium tuberculosis H37Ra (Difco, Mich.) to incomplete Freund's adjuvant (IFA). Adoptive EAE was transferred by intra-peritoneal injection of guinea-pig MBP-activated cells of the BP10 line as described in Mor et al. (1993) J Clin Invest, 92, 2199-2206. […] Clinical scoring was: +1, paralysis of tail; +1.5, paresis of posterior paws and ataxia; +2, paraplegia; +3, paralysis extending to thoracic spine; +4, a moribund state.
Treatment with cefuroxime in vivo could affect many different host agents involved in EAE or AA as well as influencing the rats' bacterial flora. To test whether the antibiotic might directly modify the behavior of effector T cells, an encephalitogenic T-cell line was stimulated in the presence or absence of cefuroxime in vitro. The weakly encephalitogenic BP10 line was used, and was stimulated for 3 days with MBP in the presence or absence of cefuroxime (50 μg/ml). The activated T cells were then washed to remove the antibiotic, the T cells were injected intra-peritoneally into naïve recipient rats (10^7 per rat), and EAE was scored. The BP10 line at later stimulations was used, when its pathogenic potential is reduced, allowing to detect both suppression and enhancement of disease. […] To rule out antigen presenting cells (APC) as the target of the beta-lactam antibiotic, the encephalitogenic BP10 line was stimulated without APC using PMA (50 ng/ml) and Ionomycin (500 ng/ml) in the presence or absence of cefuroxime.

[2] = system: RMA cells (T cell lymphoma of mouse origin); assay: RMA mouse tumor model; type: in vivo
Method: In the RMA mouse tumor model (T cell lymphoma of mouse origin), T cells are known to participate in tumor rejection, and thus augmenting T cell effects might enhance the animal's ability to reject the tumor implant. RMA cells were injected to C57BL/6J Ola Hsd mice (10^5 cells per mouse) (Chen et al. (1994) J Exp Med, 179:523-532). […] Tumor size was measured and recorded.
An additional experiment was carried out in the same experimental system, comparing 6-APA to clavulanic acid.

[3] = Dissolution in aqueous solution; type: physicochemical
[4] = system: NOD mice; assay: Autoimmune diabetes in NOD mice; type: in vivo, mouse; conditions: NOD mice at 5.7 months; SC weekly; ampicillin 1300 μg, ceftriaxone 675 μg per mouse
Method: NOD mice spontaneously develop diabetes mellitus similar to type I diabetes in humans. […] The mice were followed for the development of diabetes, marked by blood sugar above 300 mg/dl on 2 measurements.

[5] = system: experimental autoimmune encephalomyelitis (EAE) in rats; assay: Actively induced EAE; type: in vivo, rat; conditions: oral in drinking water from day 7 postinduction, daily dose 50 mg/kg, versus two control groups
[6] = target: T1, 67 kDa band in human T-cell lysates (Homo sapiens, UniProt P02768); assay: Radioactive penicillin binding assay; conditions: tritium-labeled, 10 and 20 μCi, 3 days with PMA and Ionomycin; CD4 and CD8 T cell lysates
T1 construct: endogenous in cells; host or cells: primary human CD4 or CD8 T cells from peripheral blood of healthy donors
T1 sequence (P02768 25-609): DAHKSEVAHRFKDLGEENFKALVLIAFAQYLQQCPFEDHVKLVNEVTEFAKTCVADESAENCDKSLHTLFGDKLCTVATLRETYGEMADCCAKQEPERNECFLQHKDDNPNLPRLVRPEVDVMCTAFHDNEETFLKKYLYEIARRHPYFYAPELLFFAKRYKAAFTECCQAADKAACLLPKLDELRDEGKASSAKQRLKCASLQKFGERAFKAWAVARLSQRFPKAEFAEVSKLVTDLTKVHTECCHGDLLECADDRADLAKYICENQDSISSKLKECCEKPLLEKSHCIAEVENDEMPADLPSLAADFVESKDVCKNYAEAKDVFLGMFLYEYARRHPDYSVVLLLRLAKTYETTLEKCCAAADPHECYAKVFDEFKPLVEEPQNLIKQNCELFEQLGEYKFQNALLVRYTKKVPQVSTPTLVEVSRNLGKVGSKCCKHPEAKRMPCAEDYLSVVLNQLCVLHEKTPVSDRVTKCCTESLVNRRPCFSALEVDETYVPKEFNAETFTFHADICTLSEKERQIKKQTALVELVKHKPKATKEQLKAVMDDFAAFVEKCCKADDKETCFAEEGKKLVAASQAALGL
Excerpt: Tritium labeled benzylpenicillin was obtained from Amersham (Buckinghamshire, UK; 250 μCi, 1 mCi/ml). Human CD4 or CD8 T cells were stimulated in 24 well plates, 5×10^6 cells per ml, with PMA and Ionomycin for 72 hr in the presence of 10 or 20 μCi of labeled penicillin. Following stimulation, the cells were collected, lysed and separated by SDS PAGE. The gels were fixed, treated with 1M sodium salicylate, and dried. The dried gels were exposed to x-ray film (BioMax MS film) for 14 days, with intensifying screen (BioMax TranScreen, Eastman Kodak Co., New Haven Conn., USA), and were developed.
To test whether beta-lactam antibiotics might affect T-cell behavior likewise by covalently binding a key T-cell protein, purified CD4 or CD8 human T cells were incubated with 10 and 20 μCi of tritium-labeled lactam benzylpenicillin (Amersham, Buckinghamshire, UK) for 3 days during stimulation with PMA and Ionomycin. The stimulated T cells were collected, washed, lysed and their proteins were subjected to SDS-PAGE separation. Dried gels were exposed in intensifying screens to Xray film for 2 weeks at −80° C. […] The intensity of the band was stronger at the 20 μCi concentration of penicillin.

[7] = system: human CD3 T cells; assay: Pen 9 western blot of antibiotic-treated human T cells; type: cell-based; conditions: human T cells activated by mitogen in presence of the antibiotic
[8] = target: T2, albumin (Rattus norvegicus, UniProt P02770); assay: Pen 9 detection of penicillin-albumin in vivo; conditions: Lewis rats, 50 mg/rat intraperitoneally, 2 hours later
T2 construct: from tissue; host or cells: various tissues and serum of Lewis rats
Method: Rat tissues were ground with a tissue grinder in lysis buffer. The homogenate was centrifuged 14000 g for 15 min in 4° C. and the supernatant was used for western blotting. The protein concentration was determined using the Bio-Rad Dc protein assay (Bio-Rad laboratories, Hercules, Calif.). Following electrophoresis in SDS gel in a mini-gel apparatus (Bio-Rad), the gels were electro-transferred to nitrocellulose membranes (Schleicher and schuell, Dassel, Germany). The nitrocellulose membranes were washed with distilled water for 5 min, and then blocked for 60 min. using a blocking solution composed of 2% bovine serum albumin (Fraction V, Sigma, St. Louis Mo.), 2.5% milk powder (Bio-Rad), Tris (Sigma) pH 7.5 10 mM, NaCl 150 mM and 0.02% thimerosal (Sigma). After 3×10 min. washes in PBS/Tween 20 (PBS/T; 0.02%, Sigma), primary antibodies ( 1/1000) were incubated with the membranes in PBS/Tween for 60 min. Following another series of washes in PBS/T (3×10 min), the membranes were incubated with a secondary antibody (Peroxidase conjugated anti rabbit or anti mouse, IgG Jackson ImmunoResearch, West Grove, Calif.) at a 1/2500 dilution in 2% milk in PBS solution for 60 min. After another 3×10 min washes, the membranes were incubated with the ECL reagent (for 60 seconds) and exposed to X-ray film. […]

[9] = system: albumin; assay: Pen 9 western blot of cell lines treated with penicillin; type: cell-based; conditions: cell lines raised in vitro
[10] = free penicillin; cited from earlier work
[11] = BP10 line, same doses as penicillin
[12] = 17 days after tumor injection, versus PBS treated and non-injected mice

CC1(C)S[C@@H]2[C@H](N)C(=O)N2[C@H]1C(=O)O [6-APA, 6-aminopenicillanic acid]
severity of adoptive EAE [1, 11]: EAE enhancing ability, similar to penicillin
tumor size [2, 12]: smaller tumors
tumor size ([2]; C57BL/6J mice, SC 2 μg/mouse 3 times per week, last two measurements, versus control mice): significantly smaller
solubility in aqueous solution [3]: difficult to dissolve in aqueous solution

CO/N=C(\C(=O)N[C@@H]1C(=O)N2C(C(=O)O)=C(CSc3nc(=O)c(=O)[nH]n3C)CS[C@H]12)c1csc(N)n1 [ceftriaxone]
severity of adoptive EAE ([1]; BP10 line stimulated 3 days with MBP in presence of 50 μg/ml, 10^7 cells IP per rat): enhanced EAE severity
incidence of diabetes [4]: 60%

CO/N=C(\C(=O)N[C@@H]1C(=O)N2C(C(=O)OC(C)OC(C)=O)=C(COC(N)=O)CS[C@H]12)c1ccco1 (stereo partly shown) [cefuroxime axetil]
severity of actively induced EAE [5]: significantly more severe EAE

O=C(O)[C@H]1/C(=C/CO)O[C@@H]2CC(=O)N21 [clavulanic acid]
severity of adoptive EAE (pathogenicity of BP10 line) ([1]; BP10 line stimulated with 25 μg/ml, 5 rats per group): enhanced the pathogenicity of BP10 line
tumor size [2, 12]: smaller tumors

CC1(C)S[C@@H]2[C@H](NC(=O)Cc3ccccc3)C(=O)N2[C@H]1C(=O)O [penicillin, benzylpenicillin]
covalent binding to T-cell protein (radioactive band on SDS-PAGE) [6]: single major penicillin-protein radioactive band was detected at 67 kD
reactivity of Pen 9 antibody with lysates of treated T cells [7]: reacted specifically to a major protein of the penicillin-treated T cells
67 kD band (penicilloylated albumin) in tissue lysates [8]: appears in all tissues examined and is most abundant in serum
penicillin-modified albumin band in cell line lysates [9]: could be detected in mesenchymal stem cells, dendritic cells, Jurkat, MOLT4, FAO and CEM lines
half-life [10]: 42 min

C[C@]1(Cn2ccnn2)[C@H](C(=O)O)N2C(=O)C[C@H]2S1(=O)=O [tazobactam]
severity of adoptive EAE [1, 11]: EAE enhancing ability, similar to penicillin

B1: Penicillin-modified rat albumin: rat albumin modified by penicillin (conjugate, UniProt P02770 25-608, looked up)
Albumin: EAHKSEIAHRFKDLGEQHFKGLVLIAFSQYLQKCPYEEHIKLVQEVTDFAKTCVADENAENCDKSIHTLFGDKLCAIPKLRDNYGELADCCAKQEPERNECFLQHKDDNPNLPPFQRPEAEAMCTSFQENPTSFLGHYLHEVARRHPYFYAPELLYYAEKYNEVLTQCCTESDKAACLTPKLDAVKEKALVAAVRQRMKCSSMQRFGERAFKAWAVARMSQRFPNAEFAEITKLATDVTKINKECCHGDLLECADDRAELAKYMCENQATISSKLQACCDKPVLQKSQCLAEIEHDNIPADLPSIAADFVEDKEVCKNYAEAKDVFLGTFLYEYSRRHPDYSVSLLLRLAKKYEATLEKCCAEGDPPACYGTVLAEFQPLVEEPKNLVKTNCELYEKLGEYGFQNAVLVRYTQKAPQVSTPTLVEAARNLGRVGTKCCTLPEAQRLPCVEDYLSAILNRLCVLHEKTPVSEKVTKCCSGSLVERRPCFSALTVDETYVPKEFKAETFTFHSDICTLPDKEKQIKKQTALAELVKHKPKATEDQLKTVMGDFAQFVDKCCKAADKDNCFATEGPNLVARSKEALA
modifications: penicillin-modified
severity of adoptive EAE (pathogenicity of BP10 line) ([1]; BP10 line stimulated 3 days with 5 mg/ml in stimulation medium): could also enhance the encephalogenicity of the BP10 line
